Assay results from patent US8795740B2, “Drip tray tablet” (Novapharm Research (Australia) Pty Ltd, priority 2003, dated 2014).

Experiment: preservation of enzyme activity in the tablet in use
Assay type: physicochemical
Details: in the non-dissolved part of the tablet
Source text: A preferred boron compound is borax, which the present inventors have found acts to preserve the enzyme activity in use for at least 3 months in the non-dissolved part of the tablet. The present invention thus provides matching between the enzyme activity and tablet dissolution parameters.

O=BOB(O)OB(O)OB=O [borax, Borax]
time for which enzyme activity is preserved in use: at least 3 months
